# Measurements published in US10386375B2, “Methods and systems for the diagnosis and treatment of androgen disorders” (Function Promoting Therapies LLC, priority 2013, dated 2019).
# Assays:
# SHBG = target: T1, SHBG (Homo sapiens, UniProt P04278); conditions: Model A, Vermeulen's model: equal affinity for each monomer in SHBG dimer; fixed model value; cited from earlier work
# T1 sequence (P04278 30-402): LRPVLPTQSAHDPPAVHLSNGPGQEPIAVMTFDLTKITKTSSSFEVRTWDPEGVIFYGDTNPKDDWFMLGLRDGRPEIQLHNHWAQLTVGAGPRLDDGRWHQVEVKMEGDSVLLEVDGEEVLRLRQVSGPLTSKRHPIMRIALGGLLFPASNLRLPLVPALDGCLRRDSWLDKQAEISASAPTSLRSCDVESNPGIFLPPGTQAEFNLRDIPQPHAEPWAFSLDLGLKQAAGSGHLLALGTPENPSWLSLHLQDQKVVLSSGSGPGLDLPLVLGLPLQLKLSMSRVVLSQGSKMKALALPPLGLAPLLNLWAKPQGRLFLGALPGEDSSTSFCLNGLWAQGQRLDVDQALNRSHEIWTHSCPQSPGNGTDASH
# [1] = Percent free testosterone calculated in serum samples from the TED trial; type: in vitro ADME, men
# Procedure: Assessment of FT Concentrations in Clinical Trials. FT determined using the dynamic model developed in this study (cFTZBJ) and Vermeulen's equation (cFTV) (as implemented by Mazer, (Mazer 2009)) were compared with those measured using equilibrium dialysis in samples derived from randomized testosterone trials in men (Spitzer et al 2012) and women (Huang et al 2012). These samples had been collected in fasting state in the morning, stored at −80° C., and never thawed.
# At baseline and after 12-weeks of testosterone or placebo administration, total testosterone concentrations were measured using LC-MS/MS and SHBG concentrations using a two-site immunofluorometric assay (DELFIA®, Perkin-Elmer, Waltham, Mass.) (21). FT was measured in the same samples by equilibrium dialysis(Bhasin et al 2012).
# Application of new Multi-step Dynamic Binding Model with Complex Allostery to Clinical Trials Data. SHBG and albumin are predominantly the two proteins that bind testosterone with significant affinity; the binding affinities of transcortin and orosomucoid for testosterone are extremely low. […]
smiles,measurement,setting,value
"C[C@]12CC[C@H]3[C@@H](CCC4=CC(=O)CC[C@@]43C)[C@@H]1CC[C@@H]2O [testosterone, 17-β-hydroxyandrost-4-en-3-one]",Kd,SHBG,1 nM
same,fraction of circulating testosterone which is free,"[1]; calculated with the new dynamic model (cFTZBJ), clinical trial samples",2.9±0.4%
same,% cFTV,"[1]; percent free testosterone calculated with Vermeulen's equation, as generally assumed",1.5±0.4%
